Test results reported in patent US20090105301A1, “9A-SUBSTITUTED AZALIDES FOR THE TREATMENT OF MALARIA” (priority 2006, published 2009).
≈ marks a conversion by molar mass, not a printed value. Where a name gives a salt, the structure may show the parent alone. Read-outs that look alike come from different tables or passages of the source.

How the values were obtained:
Type in all cases: cell-based, Plasmodium falciparum
P. falciparum TM91C235 = experiment: In vitro screening protocol I, [3H]-hypoxanthine incorporation, TM91C235; details: for IC50: Plasmodium falciparum, read-out: IC50 TM91C235
Source text: (§1) Agents Chemother. 27 (4) (1985) 525-530). The system was limited to the assessment of the intrinsic activity against the erythrocytic asexual life cycle (blood schizontocides). Two Plasmodium falciparum clones from CDC/Indochina III (W-2) and CDC/Sierra Leone I (D-6) (Oduola A M, Weatherly N F, Bowdre J H, Desjardins R E. Plasmodium falciparum: cloning by single-erythrocyte micromanipulation and heterogeneity in vitro. Exp Parasitol. 66 (1) (1988) 86-95) were used for all assays. TM91C235, a multiple drug resistant isolate from Thailand (Antimicrob. Agents Chemother. 46 (8) (2002) 2627 and Antimicrob. Agents Chemother. 43 (3) (1999) 598-602), was used for the prescreening assay. W-2 is resistant to chloroquine, quinine, and pyrimethamine and susceptible to mefloquine. D-6 tends to be more resistant to mefloquine and susceptible to chloroquine, quinine, and pyrimethamine. All documents cited in this paragraph are incorporated by reference in their entirety.
(§2) All parasites were maintained in continuous long term cultures in RPMI-1640 medium supplemented with 6% washed human A positive (A+)(erythrocytes, 25 mM Hepes, […], and 10% heat inactivated A+ human plasma or ALBUMAX® (lipid-rich bovine serum albumin; Invitrogen, Carlsbad, Calif.). All cultures and assays were conducted at 37° C. under an atmosphere of 5% CO2 and 5% O2, with a balance of N2.
(§3) The prescreening assay uses TM91C235 diluted at a 0.4% parasitemia in a 1% hematocrit in folic acid free and p-aminobenzoic acid free media RPMI-1640 and ALBUMAX®. […] The compound is further diluted in folate free (FF) culture medium with ALBUMAX® for the first initial starting concentration. The rest of the stock drug solution was kept at −70° C. The isolate was preexposed, in duplicate, at three concentrations (25,000 ng/ml, 2,500 ng/ml, and […]) of the test compound for 48 hr in a 96-well microtiter plate (MTP) using the BIOMEK® 2000 automated laboratory workstation. Each MTP contains chloroquine as control to assess the relative activity of the compound and to monitor the response of TM91C235.
(§4) After the preincubation, [^3H]-hypoxanthine was added to each well of the MTP. (The assay relies on the incorporation of radiolabeled hypoxanthine by the parasites, which indicates reproduction, and inhibition of isotope incorporation was attributed to activity of known or candidate antimalarial drugs). After 72 hours of total incubation time, the MTP were frozen to lyse the erythrocytes and parasites. The parasite DNA was recovered by harvesting the lysate onto glass-fiber filter plates using a Packard FilterMate™ Cell Harvester. The radioactivity was counted on a Packard TopCount™ microplate scintillation counter.
(§5) The serial dilution assay was conducted using the same assay conditions and stock solution of the compound used for the preliminary screen, described above. Both the D-6 and the W-2 clones were used. The compounds were diluted two-fold over 11 different concentration ranges with a starting concentration that was based on the preliminary screen. For each drug, the concentration response profile was determined and 50% inhibitory concentrations (IC50) were determined by using a non-linear, logistic dose response analysis program. […] For each assay, the IC50 for each clone was determined against the known antimalarials chloroquine and mefloquine. These control values established the compound's relative parasite susceptibility profile compared to known antimalarials. […]

[1] = tested on: P. falciparum W2 (CDC/Indochina III, W-2); experiment: In vitro screening protocol I, [3H]-hypoxanthine incorporation, W2; details: for IC50: Plasmodium falciparum
Source text: as §1, §2, §3, §4, §5

[2] = tested on: P. falciparum D6 (CDC/Sierra Leone I, D-6); experiment: In vitro screening protocol I, [3H]-hypoxanthine incorporation, D6; details: for IC50: Plasmodium falciparum
Source text: as §1, §2, §3, §4, §5

[3] = In vitro screening protocol I, P. falciparum TM91C235
[4] = In vitro screening protocol I, P. falciparum W2, read-out: IC50 W2
[5] = In vitro screening protocol I, P. falciparum D6, read-out: IC50 D6
[6] = In vitro screening protocol I, P. falciparum W2
[7] = In vitro screening protocol I, P. falciparum D6

Compound | IC50 (P. falciparum TM91C235; [3]) | IC50 [1, 4] | IC50 [2, 5] | also measured
CC[C@H]1OC(=O)[C@H](C)[C@@H](O[C@H]2C[C@@](C)(OC)[C@@H](O)[C@H](C)O2)[C@H](C)[C@@H](O[C@@H]2O[C@H](C)C[C@H](N(C)C)[C@H]2O)[C@](C)(O)C[C@@H](C)CN(CCCNCCCc2ccccc2)[C@H](C)[C@@H](O)[C@]1(C)O [Example 19, 9a-{3-[(3-Phenylpropyl)amino]propyl}-9-deoxo-9-dihydro-9a-aza-9a-homoerythromycin A] | < 0.1 µg/mL | < 0.1 µg/mL | 0.1 to 0.2 µg/mL (≈ 0.11 to 0.22 µM) | –
CC[C@H]1OC(=O)[C@H](C)[C@@H](O[C@H]2C[C@@](C)(OC)[C@@H](O)[C@H](C)O2)[C@H](C)[C@@H](O[C@@H]2O[C@H](C)C[C@H](NC)[C@H]2O)[C@](C)(O)C[C@@H](C)CN(CCCNc2ccnc3cc(Cl)ccc23)[C@H](C)[C@@H](O)[C@]1(C)O [Example 21B, 9a-{3-[(7-Chloro-quinolin-4-yl)amino]propyl}-3′N-demethyl-9-deoxo-9-dihydro-9a-aza-9a-homoerythromycin A] | < 0.1 µg/mL | 0.1 to 0.2 µg/mL (≈ 0.106 to 0.213 µM) | 0.1 to 0.2 µg/mL (≈ 0.106 to 0.213 µM) | –
CC[C@H]1OC(=O)[C@H](C)[C@@H](O[C@H]2C[C@@](C)(OC)[C@@H](O)[C@H](C)O2)[C@H](C)[C@@H](O[C@@H]2O[C@H](C)C[C@H](N(C)C)[C@H]2O)[C@](C)(O)C[C@@H](C)CN(CCC(=O)NCCc2ccccc2)[C@H](C)[C@@H](O)[C@]1(C)O [Example 39] | 0.2 to 1 µg/mL (≈ 0.22 to 1.1 µM) | 0.2 to 1 µg/mL (≈ 0.22 to 1.1 µM) | 0.2 to 1 µg/mL (≈ 0.22 to 1.1 µM) | –
CC[C@H]1OC(=O)[C@H](C)[C@@H](O[C@H]2C[C@@](C)(OC)[C@@H](O)[C@H](C)O2)[C@H](C)[C@@H](O[C@@H]2O[C@H](C)C[C@H](N(C)C)[C@H]2O)[C@](C)(O)C[C@@H](C)CN(CCCNCc2ccncc2)[C@H](C)[C@@H](O)[C@]1(C)O [Example 10, 9a-{3-[(Pyridine-4-yl-methyl)amino]propyl}-9-deoxo-9-dihydro-9a-aza-9a-homoerythromycin A] | – | – | – | IC50 TM91C235 (P. falciparum TM91C235; [3]): C (200 < X ≦ 1000); IC50 W2 [1, 6]: C (200 < X ≦ 1000); IC50 D6 [2, 7]: C (200 < X ≦ 1000)
CC[C@H]1OC(=O)[C@H](C)[C@@H](O[C@H]2C[C@@](C)(OC)[C@@H](O)[C@H](C)O2)[C@H](C)[C@@H](O[C@@H]2O[C@H](C)C[C@H](N(C)C)[C@H]2O)[C@](C)(O)C[C@@H](C)CN(CCCNCc2ccccc2)[C@H](C)[C@@H](O)[C@]1(C)O [Example 52, 9a-{3-[(Phenylmethyl)amino]propyl}-9-deoxo-9-dihydro-9a-aza-9a-homoerythromycin A] | – | – | – | IC50 (P. falciparum TM91C235): < 0.1 µg/mL; IC50 ([1]; W2, read-out: IC50 W2): < 0.1 µg/mL; IC50 ([2]; D6, read-out: IC50 D6): 0.2 to 1 µg/mL (≈ 0.227 to 1.13 µM)
CC[C@H]1OC(=O)[C@H](C)[C@@H](O[C@H]2C[C@@](C)(OC)[C@@H](O)[C@H](C)O2)[C@H](C)[C@@H](O[C@@H]2O[C@H](C)C[C@H](N(C)C)[C@H]2O)[C@](C)(O)C[C@@H](C)CN(CCCNC(=O)CCc2ccccc2)[C@H](C)[C@@H](O)[C@]1(C)O [Example 46, 9a-{3-[(3-Phenylpropanoyl)amino]propyl}-9a-aza-9-deoxo-9-dihydro-9a-homoerythromycin A] | – | – | – | IC50 TM91C235 (P. falciparum TM91C235; [3]): C (200 < X ≦ 1000); IC50 W2 [1, 6]: C (200 < X ≦ 1000); IC50 D6 [2, 7]: C (200 < X ≦ 1000)
CC[C@H]1OC(=O)[C@H](C)[C@@H](O[C@H]2C[C@@](C)(OC)[C@@H](O)[C@H](C)O2)[C@H](C)[C@@H](O[C@@H]2O[C@H](C)C[C@H](N(C)C)[C@H]2O)[C@](C)(O)C[C@@H](C)CN(CCCNC(=O)c2ocnc2C)[C@H](C)[C@@H](O)[C@]1(C)O [Example 34, 9a-(3-{[(4-Methyl-1,3-oxazol-5-yl)carbonyl]amino}propyl)-9a-aza-9-deoxo-9-dihydro-9a-homoerythromycin A Formiate Salt] | 0.2 to 1 µg/mL | 1 to 2.5 µg/mL | 2.5 to 2.8 µg/mL | –
CC[C@H]1OC(=O)[C@H](C)[C@@H](O[C@H]2C[C@@](C)(OC)[C@@H](O)[C@H](C)O2)[C@H](C)[C@@H](O[C@@H]2O[C@H](C)C[C@H](N(C)C)[C@H]2O)[C@](C)(O)C[C@@H](C)CN(CCCNc2ccnc3cc(Cl)ccc23)[C@H](C)[C@@H](O)[C@]1(C)O [Example 21A, 9a-{3-[(7-Chloro-quinolin-4-yl)amino]propyl}-9-deoxo-9-dihydro-9a-aza-9a-homoerythromycin A] | < 0.1 µg/mL | < 0.1 µg/mL | < 0.1 µg/mL | –
CC[C@H]1OC(=O)[C@H](C)[C@@H](O)[C@H](C)[C@@H](O)[C@](C)(O)C[C@@H](C)CN(CCCNCc2ccc3ccccc3n2)[C@H](C)[C@@H](O)[C@]1(C)O [Example 3, 9a-{3-[(Quinolin-2-yl-methyl)amino]propyl}-3-O-decladinosyl-5-O-dedesosaminyl-9-deoxo-9-dihydro-9a-aza-9a-homoerythromycin A] | 1 to 2.5 µg/mL (≈ 1.62 to 4.05 µM) | 0.2 to 1 µg/mL (≈ 0.324 to 1.62 µM) | 3.5 to 5 µg/mL (≈ 5.67 to 8.09 µM) | –
CC[C@H]1OC(=O)[C@H](C)[C@@H](O)[C@H](C)[C@@H](O[C@@H]2O[C@H](C)C[C@H](N(C)C)[C@H]2O)[C@](C)(O)C[C@@H](C)CN(CCCNCc2cccnc2)[C@H](C)[C@@H](O)[C@]1(C)O [Example 13, 9a-{3-[(Pyridine-3-yl-methyl)amino]propyl}-3-O-decladinosyl-9-deoxo-9-dihydro-9a-aza-9a-homoerythromycin A] | – | – | – | IC50 TM91C235 (P. falciparum TM91C235; [3]): D (1000 < X ≦ 2500); IC50 W2 [1, 6]: C (200 < X ≦ 1000); IC50 D6 [2, 7]: G (3500 < X ≦ 5000)
CC[C@H]1OC(=O)[C@H](C)[C@@H](O[C@H]2C[C@@](C)(OC)[C@@H](O)[C@H](C)O2)[C@H](C)[C@@H](O[C@@H]2O[C@H](C)C[C@H](N(C)C)[C@H]2O)[C@](C)(O)C[C@@H](C)CN(CCCNCc2cnc3ccccc3c2)[C@H](C)[C@@H](O)[C@]1(C)O [Example 4, 9a-{3-[(Quinolin-3-yl-methyl)amino]propyl}-9-deoxo-9-dihydro-9a-aza-9a-homoerythromycin A] | < 0.1 µg/mL | < 0.1 µg/mL | 0.1 to 0.2 µg/mL (≈ 0.107 to 0.214 µM) | –
